From patent US20230148299A1, “FEM1B PROTEIN BINDING AGENTS AND USES THEREOF” (The Regents Of The University Of California, priority 2020, published 2023)

What was measured:
BRD4 = molecular target: T1, BRD4 (Homo sapiens, UniProt O60885); assay: BRD4 degradation by Western blot in 231MFP breast cancer cells; format: cell-based; details: 231MFP cells, NJH-01-106 12 hours, MZ1 4 hours
T1 construct: endogenous in cells; host or cells: 231MFP breast cancer cells
Protocol: 231MFP breast cancer cells were treated for 12 hours with NJH-01-106, and 4 hours with known BRD4 PROTAC MZ1. BRD4 and loading control GAPDH levels were assessed by Western blotting following treatment with NJH-01-106 or MZ1, as described above, and are shown in FIG. 4.
Western Blot Protocol. Proteins were resolved by SDS-PAGE (4-20% TGX gels, Bio-Rad Laboratories, Inc.) and transferred to nitrocellulose membranes using the Trans-Blot Turbo transfer system (Bio-Rad). Membranes were blocked with 5% BSA in Tris-buffered saline containing Tween 20 (TBST) solution for 1 h at room temperature, washed in TBST and probed with primary antibody diluted in diluent, as recommended by the various manufacturers, overnight at 4° C. Primary antibodies used were: BRD4 (Cell Signaling Technologies #13440), GAPDH (ProteinTech 60004-1-Ig), FEM1B (ProteinTech 19544-1-AP). Following washes with TBST, the blots were incubated in the dark with secondary antibodies purchased from Li-Cor Biosciences and used at 1:10,000 dilution in 5% BSA in TBST at room temperature for 1 h. Blots were visualized using an Odyssey Li-Cor scanner after additional washes. Protein intensity was quantified using ImageJ software.

FEM1B-FNIP1 = FEM1B-FNIP1 (Homo sapiens, UniProt Q9UK73); assay: Fluorescence polarization between FEM1B and FNIP1 (covalent ligand screen); format: binding; details: DMSO = 100, FP between FEM1B and FNIP1; for remaining activity at 5 µM: compound at 5 μM, read-out: Normalized FP 5 μM; for activity at 50 µM: compound at 50 μM, read-out: Normalized FP 50 μM
Excerpt: FIG. 11. Fluorescence polarization screen to identify functional FEM1B-FNIP1-targeting covalent ligands.
(§1) FEM1B binds a conserved central degron in FNIP1. Deletion analysis of FNIP1 identifies a stretch of 20 amino acids that is required for its binding to FEM1B and its proteasomal degradation. FNIP1 variants were expressed in cells and tested for interaction with ^FLAGFEM1B by co-immunoprecipitation, and for degradation by measuring their abundance in the presence or absence of FEM1B. The FNIP1 degron is required for FEM1B binding and proteasomal degradation. […] FEM1B variants were immunoprecipitated and bound FNIP1 and FLCN were detected by Western blotting. The FNIP1 degron is sufficient to mediate FEM1B-dependent degradation. The FNIP1 degron was fused to GFP (GFP^degron) and expressed from the same plasmid as an IRES controlled mCherry. mCherry provides normalization for GFP fluorescence in each cell. […] Levels of GFP^degron and mCherry were determined by FACS, and their ratio is depicted for presence or absence of FEM1B variants. Deletion of FEM1B prevents FNIP1-degron dependent degradation. The FEM1B locus was deleted in 293T cells using CRISPR/Cas9. Cells were transfected with the GFP^degron/mCherry reporter, and analyzed for GFP and mCherry fluorescence by FACS. FEM1B directly binds the FNIP1 degron in vitro. A TAMRA-labeled FNIP1 degron peptide was incubated with purified FEMIB or the control CRL1 adaptor FBXL17, and binding was measured by fluorescence polarization of the peptide. The FNIP1 degron is sufficient to mediate CUL2^FEM1B-dependent ubiquitylation. The TAMRA-labeled FNIP1 degron was incubated with recombinant CUL2^FEM1B (unmodified or NEDD8-modified), E1, ubiquitin, ATP and the E2 enzymes UBE2D3 and/or UBE2R1. Ubiquitylation was monitored by gel electrophoresis and fluorescence detection.

[1] = system: GFP-Fnip1 degron reporter; assay: GFP-Fnip1 degron reporter (GFP/mCherry) by flow cytometry; format: cell-based; details: GFP/mCherry ratio by FACS
Protocol: HEK293T cells were transfected 24 hours before flow cytometery with the GFP-Fnip1 degron reporter+/−Fem1b.
FNIP1 variants were expressed in cells and tested for interaction with ^FLAGFEM1B by co-immunoprecipitation, and for degradation by measuring their abundance in the presence or absence of FEM1B. […] FEM1B variants were immunoprecipitated and bound FNIP1 and FLCN were detected by Western blotting. […] The FNIP1 degron was fused to GFP (GFP^degron) and expressed from the same plasmid as an IRES controlled mCherry. mCherry provides normalization for GFP fluorescence in each cell. […] Levels of GFP^degron and mCherry were determined by FACS, and their ratio is depicted for presence or absence of FEM1B variants. […] Cells were transfected with the GFP^degron/mCherry reporter, and analyzed for GFP and mCherry fluorescence by FACS. […] A TAMRA-labeled FNIP1 degron peptide was incubated with purified FEMIB or the control CRL1 adaptor FBXL17, and binding was measured by fluorescence polarization of the peptide. […] The TAMRA-labeled FNIP1 degron was incubated with recombinant CUL2^FEM1B (unmodified or NEDD8-modified), E1, ubiquitin, ATP and the E2 enzymes UBE2D3 and/or UBE2R1. Ubiquitylation was monitored by gel electrophoresis and fluorescence detection.

FEM1B = FEM1B (Homo sapiens, UniProt Q9UK73); assay: Fluorescence polarization binding of TAMRA-labeled FNIP1 degron peptide to recombinant FEM1B; details: degron peptide treated with agent
Excerpt: as §1, with “The FEM1B locus was deleted in 293T cells using CRISPR/Cas9.” left out, “FEM1B directly binds the FNIP1 degron in vitro.” left out, “The FNIP1 degron is sufficient to mediate CUL2^FEM1B-dependent ubiquitylation. The TAMRA-labeled FNIP1 degron was incubated with recombinant CUL2^FEM1B (unmodified or NEDD8-modified), E1, ubiquitin, ATP and the E2 enzymes UBE2D3 and/or UBE2R1.” left out, “detection. […]” for “detection.”

FEM1B-FNIP1, sequence (Q9UK73 whole entry): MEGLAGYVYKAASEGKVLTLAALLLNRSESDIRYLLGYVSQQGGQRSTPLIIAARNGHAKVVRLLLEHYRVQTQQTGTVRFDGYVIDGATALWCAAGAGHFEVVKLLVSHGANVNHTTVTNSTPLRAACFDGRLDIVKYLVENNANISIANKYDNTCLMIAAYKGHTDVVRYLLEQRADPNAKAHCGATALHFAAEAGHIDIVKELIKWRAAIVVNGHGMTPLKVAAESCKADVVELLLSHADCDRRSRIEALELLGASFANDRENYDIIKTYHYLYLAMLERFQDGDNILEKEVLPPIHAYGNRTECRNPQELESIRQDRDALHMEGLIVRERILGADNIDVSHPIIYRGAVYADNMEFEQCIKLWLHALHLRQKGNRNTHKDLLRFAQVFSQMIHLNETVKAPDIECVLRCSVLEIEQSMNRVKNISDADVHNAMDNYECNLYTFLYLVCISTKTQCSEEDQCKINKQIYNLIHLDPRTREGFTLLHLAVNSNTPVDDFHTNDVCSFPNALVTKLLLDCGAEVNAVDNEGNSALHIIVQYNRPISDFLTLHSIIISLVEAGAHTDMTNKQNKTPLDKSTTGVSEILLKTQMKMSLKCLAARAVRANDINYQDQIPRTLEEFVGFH
FEM1B, sequence (Q9UK73 whole entry): as above

Molecule | degradation of BRD4 (BRD4) | remaining activity at 5 µM (FEM1B-FNIP1) [%] | activity at 50 µM (FEM1B-FNIP1) [%] | stability of GFP^degron reporter [1] | recognition of FNIP1 degron by FEM1B after treatment of degron with Cys-modifying agent (FEM1B)
Cc1sc2c(c1C)C(c1ccc(Cl)cc1)=N[C@@H](CC(=O)NCCCCCNC(=O)CN1CCOc3cc(N(CCC#N)C(=O)CCl)ccc31)c1nnc(C)n1-2 [EN106 linked to BRD4 inhibitor JQ1, (S)-2-chloro-N-(4-(2-((5-(2-(4-(4-chlorophenyl)-2,3,9-trimethyl-6H-thieno[3,2-f][1,2,4]triazolo[4,3-a][1,4]diazepin-6-yl)acetamido)pentyl)amino)-2-oxoethyl)-3,4-dihydro-2H-benzo[b][1,4]oxazin-7-yl)-N-(2-cyanoethyl)acetamide] | degradation of BRD4 | – | – | – | –
CC(Cl)C(=O)Nc1ccc2c(c1)OCCO2 (stereo not drawn) [EN-NJH-005] | – | 98.1 | 101 | – | –
O=C(CCl)Nc1cc2c(cc1Br)OCCO2 [EN-NJH-007] | – | 87.7 | 11.7 | – | –
O=C(CCl)N(Cc1cccs1)c1ccc2c(c1)OCCO2 [EN-NJH-009] | – | 74.8 | 6 | – | –
O=C(CCl)Nc1ccc2c(c1)OCCO2 [EN-NJH-013] | – | 93.1 | 21.3 | – | –
O=C(CCl)Nc1cc2c(cc1Cl)OCCO2 [EN-NJH-014] | – | 94.8 | 21.8 | – | –
COc1cc2c(cc1OC)N(C(=O)CCl)CC2 [EN-NJH-020] | – | 15.6 | 19.1 | – | –
O=C(CCl)N(CC=Cc1ccccc1)c1ccc2c(c1)OCCO2 [EN-NJH-021] | – | 86.4 | 26.8 | – | –
C#CCCCCNC(=O)CI [IAyne] | – | – | – | stabilizes GFP^degron in cells | –
Cc1ncsc1-c1ccc(CNC(=O)[C@@H]2C[C@@H](O)CN2C(=O)[C@@H](NC(=O)COCCOCCOCCNC(=O)C[C@@H]2N=C(c3ccc(Cl)cc3)c3c(sc(C)c3C)-n3c(C)nnc32)C(C)(C)C)cc1 [MZ1, reference compound] | degradation of BRD4 | – | – | – | –
CC(=O)N[C@@H](CS)C(=O)O [N-acetylcysteine] | – | – | – | does not affect the stability of the GFP^degron reporter | –
CCN1C(=O)C=CC1=O [N-ethylmaleimide] | – | – | – | – | strongly inhibited its recognition by FEM1B
COc1cccc(CN(C(=O)CCl)c2ccc3c(c2)OCCO3)c1 [SB-02-092] | – | 54.9 | 12.6 | – | –
CC(C)C[C@H](NC(=O)[C@H](CCc1ccccc1)NC(=O)CN1CCOCC1)C(=O)N[C@@H](Cc1ccccc1)C(=O)N[C@@H](CC(C)C)C(=O)[C@@]1(C)CO1 [carfilzomib] | – | – | – | stabilizes the GFP^degron reporter | –
NC(=O)CI [iodoacetamide] | – | – | – | – | strongly inhibited its recognition by FEM1B
antimycin A | – | – | – | stabilized GFP^degron | –

Second part, led by results:

degradation of BRD4 (BRD4) | remaining activity at 5 µM (FEM1B-FNIP1) [%] | activity at 50 µM (FEM1B-FNIP1) [%] | Molecule | stability of GFP^degron reporter [1] | recognition of FNIP1 degron by FEM1B after treatment of degron with Cys-modifying agent (FEM1B)
– | 97.8 | 19.1 | C=CCOc1ccccc1CN(C(=O)CCl)c1ccc2c(c1)OCCO2 [EN-NJH-001] | – | –
– | 40.1 | 8.82 | CCOc1ccc(N(CCC#N)C(=O)CCl)cc1 [EN-NJH-002] | – | –
– | 54.1 | 2.7 | N#CCCN(C(=O)CCl)c1cccc(Cl)c1 [EN-NJH-003] | – | –
– | 76.1 | 11.8 | CCN(C(=O)CCl)c1ccc2c(c1)OCO2 [EN-NJH-004] | – | –
– | 89.7 | 21.5 | C=CCOc1ccccc1CN(C(=O)CCl)c1ccc2c(c1)OCO2 [EN-NJH-006] | – | –
– | 97.9 | 113 | CC(Cl)C(=O)N(CCC#N)c1ccccc1 (stereo not drawn) [EN-NJH-008] | – | –
– | 46.8 | 14.6 | N#CCCN(C(=O)CCl)c1ccccc1F [EN-NJH-010] | – | –
– | 45.8 | 4.29 | Cc1ccc(N(CCC#N)C(=O)CCl)cc1 [EN-NJH-011] | – | –
– | 90.4 | 24.8 | COc1ccccc1N(CCC#N)C(=O)CCl [EN-NJH-012] | – | –
– | 36.3 | 16.3 | N#CCCN(C(=O)CCl)c1ccc(F)cc1 [EN-NJH-015] | – | –
– | 43.7 | 11.3 | Cc1ccc(N(CCC#N)C(=O)CCl)cc1C [EN-NJH-016] | – | –
– | 63.7 | 17.4 | Cc1cc(C)cc(N(CCC#N)C(=O)CCl)c1 [EN-NJH-017] | – | –
– | 16.4 | 12 | Cc1cc(N(CCC#N)C(=O)CCl)ccc1Cl [EN-NJH-018] | – | –
– | 44.1 | 19.4 | N#CCCN(C(=O)CCl)c1ccccc1 [EN-NJH-019] | – | –
– | 32.8 | 9.87 | CC(C)(C)OC(=O)N1CCOc2ccc(N(CCC#N)C(=O)CCl)cc21 [NJH-01-073] | – | –
– | 31.3 | 14.2 | CC(=O)N1CCOc2ccc(N(CCC#N)C(=O)CCl)cc21 [NJH-01-085] | – | –
– | 26.5 | 15.2 | CC(C)(C)OC(=O)CN1CCOc2cc(N(CCC#N)C(=O)CCl)ccc21 [NJH-01-093] | – | –
– | 105 | 115 | C=CC(=O)N(CCC#N)c1ccc2c(c1)OCCO2 [NJH-01-098] | – | –
